Seven test systems from the supplement of paper PMC6045584 can be followed below.

± gives the standard deviation of the averaged measurements.

Compound in experiment [1]: CC(=O)NCC(=O)N1[C@@H]2CC[C@H]1c1ccc(Nc3ncc(C(F)(F)F)c(NC4CCC4)n3)cc12
Description: surviving fraction relative to DMSO-only wells; higher = less growth inhibition. The note with it: exposure time: 5 days. The gist of the method: (§1)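 Five days of continuous inhibitor exposure, at 0.5, 1, 5, 10, 50, 100, 500 and 1000 nM, followed a 24-hour period after log-phase tumour cell lines were seeded at 250–500 cells per well in 384-well plates. Surviving fraction was derived from CellTiter-Glo luminescence relative to the median of DMSO-only wells. Plates were read after 10 minutes at room temperature, and lines screened three times were kept only if replicate Pearson r >0.7 and median Z' >0.3.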

Compound in another experiment: CC(=O)O[C@H]1C(=O)[C@@]2(C)[C@H]([C@H](OC(=O)c3ccccc3)[C@]3(O)C[C@H](OC(=O)[C@H](O)[C@@H](NC(=O)c4ccccc4)c4ccccc4)C(C)=C1C3(C)C)[C@]1(OC(C)=O)CO[C@@H]1C[C@@H]2O [PACLITAXEL]
The experiment is described as above. To be noted: exposure time: 5 days. A digest of the protocol:
as §1

Take HCC1806 BREAST: the surviving fraction in experiment [1] (0.5 nM) was 0.995 ± 0.055; in experiment [1] (1 nM) it was 0.914 ± 0.11; in experiment [1] (5 nM), 1.14 ± 0.041; in experiment [1] (10 nM), 1.11 ± 0.031; in experiment [1] (50 nM) it was 0.658 ± 0.057; in experiment [1] (100 nM) it was 0.471 ± 0.042. The surviving fraction in experiment [1] (500 nM) was found to be 0.583 ± 0.076; in experiment [1] (1000 nM), 0.407 ± 0.04; with PACLITAXEL (0.5 nM) it was 0.89 ± 0.17; with PACLITAXEL (1 nM), 0.1833 ± 0.0015; in the experiment with PACLITAXEL (5 nM) it was 0.0437 ± 0.0038; with PACLITAXEL (10 nM), 0.0357 ± 0.0032. Further, the surviving fraction with PACLITAXEL (50 nM) amounted to 0.0307 ± 0.0057; with PACLITAXEL (100 nM), 0.0207 ± 0.0029; with PACLITAXEL (500 nM), 0.0253 ± 0.0031; with PACLITAXEL (1000 nM), 0.021 ± 0.0017.

For the test system SCC003 HEADNECK, the surviving fraction came to 0.911 ± 0.056 in experiment [1] (0.5 nM); 0.889 ± 0.096 in experiment [1] (1 nM); 1.05 ± 0.06 in experiment [1] (5 nM); 1.02 ± 0.027 in experiment [1] (10 nM); 0.988 ± 0.043 in experiment [1] (50 nM); 0.636 ± 0.063 in experiment [1] (100 nM). Further, the surviving fraction in experiment [1] (500 nM) came out at 0.425 ± 0.035; in experiment [1] (1000 nM), 0.397 ± 0.076; with PACLITAXEL (0.5 nM) it was 0.945 ± 0.11; with PACLITAXEL (1 nM) it was 0.805 ± 0.075; with PACLITAXEL (5 nM), 0.324 ± 0.037; with PACLITAXEL (10 nM) it was 0.27 ± 0.028. For the same test system, the surviving fraction with PACLITAXEL (50 nM) was 0.192 ± 0.01; with PACLITAXEL (100 nM), 0.196 ± 0.031; with PACLITAXEL (500 nM) it was 0.179 ± 0.021; with PACLITAXEL (1000 nM), 0.166 ± 0.018.

For HT1080 SOFT TISSUE, the surviving fraction is 0.998 ± 0.035 in experiment [1] (0.5 nM); 0.983 ± 0.011 in experiment [1] (1 nM); 0.964 ± 0.05 in experiment [1] (5 nM); 0.961 ± 0.031 in experiment [1] (10 nM); 0.66 ± 0.0067 in experiment [1] (50 nM); 0.404 ± 0.011 in experiment [1] (100 nM). For the same test system, the surviving fraction in experiment [1] (500 nM) is 0.303 ± 0.004; in experiment [1] (1000 nM), 0.281 ± 0.0093; in the experiment with PACLITAXEL (0.5 nM), 0.772 ± 0.034; with PACLITAXEL (1 nM), 0.533 ± 0.0091; with PACLITAXEL (5 nM), 0.133 ± 0.019; with PACLITAXEL (10 nM), 0.0517 ± 0.0035. For the same test system, the surviving fraction with PACLITAXEL (50 nM) amounted to 0.0427 ± 0.0031; with PACLITAXEL (100 nM) it was 0.031 ± 0.0017; in the experiment with PACLITAXEL (500 nM), 0.0293 ± 0.0025; in the experiment with PACLITAXEL (1000 nM) it was 0.0317 ± 0.00058.

With NY BONE, the surviving fraction in experiment [1] (0.5 nM) amounted to 0.962 ± 0.012; in experiment [1] (1 nM) it was 0.941 ± 0.029; in experiment [1] (5 nM), 0.9803 ± 0.0061; in experiment [1] (10 nM) it was 0.964 ± 0.03; in experiment [1] (50 nM), 0.69 ± 0.011; in experiment [1] (100 nM), 0.672 ± 0.025. The surviving fraction in experiment [1] (500 nM) was 0.432 ± 0.025; in experiment [1] (1000 nM) it was 0.129 ± 0.0021; with PACLITAXEL (0.5 nM), 0.938 ± 0.019; in the experiment with PACLITAXEL (1 nM), 0.334 ± 0.015; with PACLITAXEL (5 nM) it was 0.0363 ± 0.0075; with PACLITAXEL (10 nM), 0.0327 ± 0.005. Also, the surviving fraction with PACLITAXEL (50 nM) was 0.0363 ± 0.0055; in the experiment with PACLITAXEL (100 nM), 0.026 ± 0.0076; with PACLITAXEL (500 nM) it was 0.0307 ± 0.0038; in the experiment with PACLITAXEL (1000 nM) it was 0.0293 ± 0.0057.

As for SG28 HEADNECK, the surviving fraction amounted to 1.06 ± 0.12 in experiment [1] (0.5 nM); 1.03 ± 0.036 in experiment [1] (1 nM); 0.972 ± 0.15 in experiment [1] (5 nM); 0.991 ± 0.13 in experiment [1] (10 nM); 0.949 ± 0.11 in experiment [1] (50 nM); 0.828 ± 0.015 in experiment [1] (100 nM). Besides, the surviving fraction in experiment [1] (500 nM) turned out to be 0.682 ± 0.048; in experiment [1] (1000 nM), 0.601 ± 0.075; with PACLITAXEL (0.5 nM) it was 1.05 ± 0.086; in the experiment with PACLITAXEL (1 nM) it was 0.903 ± 0.13; in the experiment with PACLITAXEL (5 nM), 0.645 ± 0.033; with PACLITAXEL (10 nM) it was 0.635 ± 0.051. Further, the surviving fraction with PACLITAXEL (50 nM) was determined as 0.463 ± 0.072; with PACLITAXEL (100 nM), 0.505 ± 0.0085; in the experiment with PACLITAXEL (500 nM), 0.458 ± 0.02; with PACLITAXEL (1000 nM) it was 0.487 ± 0.043.

Turning to HMLE3 BREAST, the surviving fraction is 0.923 ± 0.046 in experiment [1] (0.5 nM); 0.934 ± 0.029 in experiment [1] (1 nM); 1.01 ± 0.053 in experiment [1] (5 nM); 0.941 ± 0.092 in experiment [1] (10 nM); 0.807 ± 0.027 in experiment [1] (50 nM); 0.689 ± 0.0078 in experiment [1] (100 nM). Moreover, the surviving fraction came out at 0.357 ± 0.026 in experiment [1] (500 nM); 0.237 ± 0.041 in experiment [1] (1000 nM); 0.89 ± 0.065 with PACLITAXEL (0.5 nM); 0.816 ± 0.1 in the experiment with PACLITAXEL (1 nM); 0.247 ± 0.019 in the experiment with PACLITAXEL (5 nM); 0.0813 ± 0.0093 in the experiment with PACLITAXEL (10 nM). The surviving fraction with PACLITAXEL (50 nM) turned out to be 0.05 ± 0.007; with PACLITAXEL (100 nM), 0.0377 ± 0.0042; in the experiment with PACLITAXEL (500 nM) it was 0.034 ± 0.0027; with PACLITAXEL (1000 nM), 0.0287 ± 0.0011.

As for KPD BONE, the surviving fraction in experiment [1] (0.5 nM) came out at 0.977 ± 0.019; in experiment [1] (1 nM), 0.987 ± 0.026; in experiment [1] (5 nM), 0.991 ± 0.07; in experiment [1] (10 nM) it was 1.04 ± 0.093; in experiment [1] (50 nM), 0.903 ± 0.003; in experiment [1] (100 nM), 0.737 ± 0.033. Also, the surviving fraction in experiment [1] (500 nM) came to 0.346 ± 0.009; in experiment [1] (1000 nM), 0.124 ± 0.0044; with PACLITAXEL (0.5 nM), 0.909 ± 0.093; with PACLITAXEL (1 nM), 0.889 ± 0.062; in the experiment with PACLITAXEL (5 nM) it was 0.387 ± 0.029; with PACLITAXEL (10 nM) it was 0.365 ± 0.044. Moreover, the surviving fraction with PACLITAXEL (50 nM) was 0.338 ± 0.015; with PACLITAXEL (100 nM), 0.315 ± 0.025; with PACLITAXEL (500 nM), 0.327 ± 0.011; with PACLITAXEL (1000 nM), 0.313 ± 0.026.
